Assay results taken from PubChem BioAssay AID2060609 (Molecular Pharmacology Branch, DTP, NCI, 2025).
Where “and” joins values, the source holds several entries; their conditions need not be identical. Identical values can stand only once.

System: 855422-203-R-J1-PDC complex spheroids, viability
Assay: Anticancer human tumor 855422-203-R-J1-PDC patient-derived bladder carcinoma cell line growth inhibition [CLK]
Details: for viability, T/C: stronger effect = lower value
Description: A high-throughput screen of multi-cell type tumor spheroids was designed to identify active combinations of […] and targeted small molecules. Complex spheroids include a stromal component modeled by human endothelial cells (HUVEC) and fibroblasts modeled by human mesenchymal stem cells (MSCs). The concentration ranges selected for each drug and investigational agent were based upon clinically achievable concentrations if the clinical Cmax of the agent was known.
Compounds. The drugs and investigational agents: cirtuvivint (SM08502; NSC835563), CC-671 (NSC850746), vemurafenib (NSC761431), tapotoclax (NSC804041), sotorasib (NSC818433), adagrasib (NSC831453), MRTX-1133 (NSC836407), BAY2416964 (NSC825713), copanlisib (NSC816437), inavolisib (NSC800729), abemaciclib (NSC768073), osimertinib (NSC779217), entinostat (NSC756642), eltanexor (KPT-8602, NSC794443), venetoclax (NSC766270), ceralasertib (NSC777638), bortezomib (NSC756655), olaparib (NSC753686), talazoparib (NSC767125), alisertib (NSC759677), peposertib (NSC802822), gemcitabine (NSC613327), 5-fluorouracil (NSC19893), SN-38 (NSC673596), oxaliplatin (NSC266046), paclitaxel (NSC125973), and doxorubicin (NSC123127), were obtained from the National Cancer Institute (NCI) Developmental Therapeutics Program Chemical Repository. The FDA-approved anticancer drug set is available from the Developmental Therapeutics Program at https://dtp.cancer.gov/organization/dscb/obtaining/available plates.htm. […] The stock solutions were prepared in dimethyl sulfoxide (DMSO, Sigma-Aldrich, St. Louis, MO, cat. D2650), except for the platinum complexes which were prepared in saline (Quality Biological, Gaithersburg, MD, cat. 114-055-101), at 800-fold the tested concentration and stored at -70 degrees C prior to their use. All drugs and investigational agents were tested over a range starting from a high concentration at or near the clinical Cmax and decreasing in half-log increments. If the clinical Cmax for an agent had not been determined, the highest concentration tested was 10 microM.
Cell Culture. All cells were maintained in an incubator at 37 degrees C and 5% CO2 with 95% humidity. The PDC lines were cultured according to standard operating procedures established by the NCI PDMR. Briefly, all PDCs were thawed and cultured in Matrigel-coated flasks prepared with a working solution of 1X Ham's F-12 nutrient mix, without supplementation (Invitrogen, Waltham, MA, cat. 11765054), 100 U/mL penicillin-streptomycin (Invitrogen, cat. 15140122), and 2.5% Matrigel (Corning Inc., Corning, NY, cat. 354248) for the first three passages. The 947758-054-R-J2-PDC line was cultured in 6B/Colon 1A media, which includes advanced DMEM/F-12 (Thermo Fisher Scientific, cat. 12634028), 10 mM HEPES (Thermo Fisher Scientific, cat. 15630080), 1X GlutaMAX supplement (Thermo Fisher Scientific, cat. 35050061), 0.1 mg/mL primocin (InvivoGen, cat. ant-pm-2), 10% defined fetal bovine serum, heat inactivated (HyClone Laboratories Inc., cat. SH30070.03HI), 1.25 mM N-Acetyl-L-cysteine (Sigma-Aldrich, cat. A9165), 10 mM nicotinamide (Sigma-Aldrich, cat. N0636), 1X B-27 supplement (Thermo Fisher Scientific, cat. 17504044), 1X N-2 supplement (Thermo Fisher Scientific, cat. 17502048), and 10 microM Y-27632 dihydrochloride (Tocris Bioscience, cat. 1254). The 876862-298-R-J1-PDC was cultured in 6E media, which includes all 6B/Colon 1A media components plus 50% L-WRN conditioned media (ATCC, cat. CRL-3276), 50 ng/mL recombinant human EGF recombinant protein (hEGF; Thermo Fisher Scientific, cat. PHG0311), 10 ng/mL recombinant human fibroblast growth factor 10 (hGFG-10; PeproTech, cat. 100-26), 1 ng/mL recombinant human fibroblast growth factor 2 (hFGF-2; PeproTech, cat. 100-18B), and 1 µM prostaglandin E2 (PGE2; Tocris, cat. 2296). The 227483-062-R1-J1-PDC line was cultured in Panc media, containing all 6E components except hFGF-2, with the addition of 500 nM SB-431542 (Selleckchem, cat. S1067) and 10 nM gastrin (Tocris, cat. 3006). […]

[1] = curve of first compound, second compound 0.0316 µM
[2] = curve of first compound, second compound 0.1 µM
[3] = curve of first compound, second compound 0.316 µM
[4] = curve of first compound, second compound 1 µM
[5] = curve of first compound, second compound 3.16 µM
[6] = curve of first compound, second compound 10 µM
[7] = second compound 0.0316 µM, first compound 0.0316 µM
[8] = second compound 0.0316 µM, first compound 0.1 µM
[9] = second compound 0.0316 µM, first compound 0.316 µM
[10] = second compound 0.0316 µM, first compound 1 µM
[11] = second compound 0.1 µM, first compound 0.0316 µM
[12] = second compound 0.1 µM, first compound 0.1 µM
[13] = second compound 0.1 µM, first compound 0.316 µM
[14] = second compound 0.1 µM, first compound 1 µM
[15] = second compound 0.316 µM, first compound 0.0316 µM
[16] = second compound 0.316 µM, first compound 0.1 µM
[17] = second compound 0.316 µM, first compound 0.316 µM
[18] = second compound 0.316 µM, first compound 1 µM
[19] = second compound 1 µM, first compound 0.0316 µM
[20] = second compound 1 µM, first compound 0.1 µM
[21] = second compound 1 µM, first compound 0.316 µM
[22] = second compound 1 µM, first compound 1 µM
[23] = second compound 3.16 µM, first compound 0.0316 µM
[24] = second compound 3.16 µM, first compound 0.1 µM
[25] = second compound 3.16 µM, first compound 0.316 µM
[26] = second compound 3.16 µM, first compound 1 µM
[27] = second compound 10 µM, first compound 0.0316 µM
[28] = second compound 10 µM, first compound 0.1 µM
[29] = second compound 10 µM, first compound 0.316 µM
[30] = second compound 10 µM, first compound 1 µM
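Note: spheroids exposed to drugs for seven days before readout.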
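Throughout, for viability, T/C: 100% = DMSO vehicle control wells.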

## CCCS(=O)(=O)Nc1ccc(F)c(C(=O)c2c[nH]c3ncc(-c4ccc(Cl)cc4)cc23)c1F + CNC(=O)c1ccc(Nc2nc(OC3CCCC3)c3c(-c4ccc5nc(C)oc5c4)c[nH]c3n2)c(OC)c1
[1]
  IC50: 5680 nM
[2]
  IC50: 1030 nM
[3]
  IC50: < 31.6 nM
[4]
  IC50: < 31.6 nM
[5]
  IC50: < 31.6 nM
[6]
  IC50: < 31.6 nM
[7]
  viability, T/C: 90.8%
[8]
  viability, T/C: 79.9%
[9]
  viability, T/C: 112%
[10]
  viability, T/C: 92.2%
Second compound 0.0316 µM, first compound 3.16 µM
  viability, T/C: 114%
Second compound 0.0316 µM, first compound 10 µM
  viability, T/C: 3.65%
[11]
  viability, T/C: 50.6%
[12]
  viability, T/C: 52.7%
[13]
  viability, T/C: 48.5%
[14]
  viability, T/C: 49.6%
Second compound 0.1 µM, first compound 3.16 µM
  viability, T/C: 46%
Second compound 0.1 µM, first compound 10 µM
  viability, T/C: 6.89%
[15]
  viability, T/C: 23.8%
[16]
  viability, T/C: 23.8%
[17]
  viability, T/C: 19.8%
[18]
  viability, T/C: 19.9%
Second compound 0.316 µM, first compound 3.16 µM
  viability, T/C: 21.4%
Second compound 0.316 µM, first compound 10 µM
  viability, T/C: 5.35%
[19]
  viability, T/C: 17.7%
[20]
  viability, T/C: 20.9%
[21]
  viability, T/C: 17.9%
[22]
  viability, T/C: 20.2%
Second compound 1 µM, first compound 3.16 µM
  viability, T/C: 16.9%
Second compound 1 µM, first compound 10 µM
  viability, T/C: 4.43%
[23]
  viability, T/C: 22.2%
[24]
  viability, T/C: 14.9%
[25]
  viability, T/C: 18.7%
[26]
  viability, T/C: 15.1%
Second compound 3.16 µM, first compound 3.16 µM
  viability, T/C: 19.5%
Second compound 3.16 µM, first compound 10 µM
  viability, T/C: 4.41%
[27]
  viability, T/C: 18.2%
[28]
  viability, T/C: 19.6%
[29]
  viability, T/C: 20%
[30]
  viability, T/C: 17.6%
Second compound 10 µM, first compound 3.16 µM
  viability, T/C: 15.1%
Second compound 10 µM, first compound 10 µM
  viability, T/C: 5.26%

## O=c1[nH]cc(F)c(=O)[nH]1
Compound 0.0316 µM
  viability, T/C: 109% and 162%
Compound 0.1 µM
  viability, T/C: 103% and 123%
Compound 0.316 µM
  viability, T/C: 86.9% and 104%
Compound 1 µM
  viability, T/C: 60.5% and 74.4%
Compound 3.16 µM
  viability, T/C: 51.7% and 56%
Compound 10 µM
  viability, T/C: 40% and 45.8%
Curve of compound
  IC50: 2690 nM and 6240 nM

## COc1c(OCCCN2CCOCC2)ccc2c3n(c(=NC(=O)c4cnc(N)nc4)nc12)CCN3 + CN1CCN(c2cc(C(=O)Nc3cc4cc(-c5cnn(C)c5)ccc4cn3)ccn2)CC1
[1]
  IC50: 16.8 nM
[2]
  IC50: 16.1 nM
[3]
  IC50: < 3.16 nM
[4]
  IC50: < 3.16 nM
[5]
  IC50: < 3.16 nM
[6]
  IC50: < 3.16 nM
Second compound 0.0316 µM, first compound 0.00316 µM
  viability, T/C: 99.6%
Second compound 0.0316 µM, first compound 0.01 µM
  viability, T/C: 62.2%
[7]
  viability, T/C: 36.4%
[8]
  viability, T/C: 11.9%
[9]
  viability, T/C: 3.81%
[10]
  viability, T/C: 2.23%
Second compound 0.1 µM, first compound 0.00316 µM
  viability, T/C: 72.3%
Second compound 0.1 µM, first compound 0.01 µM
  viability, T/C: 63.5%
[11]
  viability, T/C: 31.1%
[12]
  viability, T/C: 10.7%
[13]
  viability, T/C: 3.24%
[14]
  viability, T/C: 2.43%
Second compound 0.316 µM, first compound 0.00316 µM
  viability, T/C: 8.06%
Second compound 0.316 µM, first compound 0.01 µM
  viability, T/C: 6.72%
[15]
  viability, T/C: 3.02%
[16]
  viability, T/C: 1.03%
[17]
  viability, T/C: 0.35%
[18]
  viability, T/C: 0.51%
Second compound 1 µM, first compound 0.00316 µM
  viability, T/C: 0.24%
Second compound 1 µM, first compound 0.01 µM
  viability, T/C: 0.17%
[19]
  viability, T/C: 0.09%
[20]
  viability, T/C: 0.07%
[21]
  viability, T/C: 0.05%
[22]
  viability, T/C: 0.12%
Second compound 3.16 µM, first compound 0.00316 µM
  viability, T/C: 0.37%
Second compound 3.16 µM, first compound 0.01 µM
  viability, T/C: 0.37%
[23]
  viability, T/C: 0.6%
[24]
  viability, T/C: 0.12%
[25]
  viability, T/C: 0.13%
[26]
  viability, T/C: 0.1%
Second compound 10 µM, first compound 0.00316 µM
  viability, T/C: 0.23%
Second compound 10 µM, first compound 0.01 µM
  viability, T/C: 0.33%
[27]
  viability, T/C: 0.19%
[28]
  viability, T/C: 0.18%
[29]
  viability, T/C: 0.32%
[30]
  viability, T/C: 0.15%
